From US7431958B2, “Use of fraction from Cinnamomum zeylanicum for preserving food” (Council of Scientific & Industrial Research, priority 2003, dated 2008)

What was measured:
[1] = antioxidant activity using DPPH method
Source text: The water extract obtained in the above methods was screened for antioxidant activity using 1,1-diphenyl-2-picrylhydrazyl (DPPH) [J. Agricultural and Food Chemistry, 50, 81-86, 2002].

[2] = antioxidant activity using β-carotene-linoleate model system; conditions: β-carotene-linoleate method
Source text: The water extract obtained, was screened for antioxidant activity using β-carotene-linoleate model systems.

In the case of `COc1ccc(O)c(C(C)(C)C)c1` [BHA, butylated hydroxyanisole], the antioxidant activity ([1]; 25 ppm) is reported as 71%, the antioxidant activity ([1]; 50 ppm) is reported as 94% and the antioxidant activity ([2]; 100 ppm) is reported as 81%. For the same compound, the antioxidant activity ([2]; 200 ppm) was 89%.
